The target in one assay is T1, COX-1 (Ovis aries, UniProt P05979).
T1 construct: purchased Cayman Chemical Company, Ann Arbor, MI, USA
T1 sequence (P05979 25-600): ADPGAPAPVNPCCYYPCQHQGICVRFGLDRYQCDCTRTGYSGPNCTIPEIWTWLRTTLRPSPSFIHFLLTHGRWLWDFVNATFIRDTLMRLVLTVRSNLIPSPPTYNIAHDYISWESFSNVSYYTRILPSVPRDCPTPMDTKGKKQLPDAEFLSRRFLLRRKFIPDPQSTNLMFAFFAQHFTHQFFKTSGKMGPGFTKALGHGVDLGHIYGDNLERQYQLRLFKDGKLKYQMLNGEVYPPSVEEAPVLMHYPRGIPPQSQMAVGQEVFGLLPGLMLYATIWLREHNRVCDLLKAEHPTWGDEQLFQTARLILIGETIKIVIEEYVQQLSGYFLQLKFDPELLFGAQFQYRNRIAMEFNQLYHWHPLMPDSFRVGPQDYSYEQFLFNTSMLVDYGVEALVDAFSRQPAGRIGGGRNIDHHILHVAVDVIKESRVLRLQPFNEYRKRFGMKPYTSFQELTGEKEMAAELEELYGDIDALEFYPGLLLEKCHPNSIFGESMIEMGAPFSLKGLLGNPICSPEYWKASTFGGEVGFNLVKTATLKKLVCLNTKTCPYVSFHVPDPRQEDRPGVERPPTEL
Nature of the assay: COX colorimetric inhibitor screening assay, COX-1. It is filed as biochemical. The note with it: after 2 min of incubation, n = 5; read-out: IC50 [µM] ± SD COX-1. From the text: The compounds were studied for their potencies to inhibit COX-1 and COX-2 enzymes by the colorimetric inhibitor screening assay.
A COX Colorimetric Inhibitor Screening Assay Kit, produced by Cayman Chemical Company, Ann Arbor, MI, USA, was used. It used the colorimetric monitoring of oxidized form of TMPD (N,N,N′,N′-tetramethyl-p-phenylenediamine) which was produced during reduction of prostaglandin G2 (PGG2) to PGH2. […] Reagents used it this assay were: COX-1 and COX-2 enzymes, Tris-HCl buffer, solutions of heme in DMSO and TMPD, arachidonic acid, KOH. To be sure that 100% enzymatic activity was achieved each sample was measured 3 times. The probes were measured after two minutes of incubation with tested compounds in the comparison to the initial activity of enzyme.

In assay [1] the test system is VERO (kidney epithelial cells). As to the kind of experiment: MTT assay, VERO. As to conditions: Chlorocebus sabaeus, Vero, 48 h incubation, read-out: IC50 [µM] ± SD VERO. Type of assay: cell-based. From the text:
(§1) The MTT (3-[4,5-dimethylthiazol-2-yl]-2,5-diphenyl tetrazolium bromide) assay was used to determine the cytotoxicity of tested compounds towards different cell lines: normal human dermal fibroblasts (NHDF), kidney epithelial cells (VERO), fibroblasts from Chinese hamster lung (V79) and four human cancer cells: A549 (pulmonary basal cell alveolar adenocarcinoma), MCF-7 (breast adenocarcinoma), LoVo (colon adenocarcinoma), and its drug resistant subline LoVo/Dx. The cell lines used in this study express COX-1 and COX-2. The LoVo line expressed COX-1, the LoVo/Dx subline express both COX-1 and COX-2 [61].
(§2) Each cell line was grown in the culture media recommended by supplier. Before the test they were detached with trypsin/EDTA solution, then to neutralize the effect of Trypsin/EDTA solution, FBS containing medium was used. After centrifugation the cells were stained with 0.4% solution of trypan blue, counted and inspected for viability using microscope. In the end, cells were inserted into 96-well culture plates and incubated in CO2 incubator (37 °C, 24 h). The number of cells was 2 × 10^3 cells per well. The tested compounds with different concentrations (5, 10, 20, 50, 100 µM) were dissolved in DMSO and then added to the cells (the final DMSO concentration was 0.1%). The cultures were incubated for another 48 h. After that time the cells were collected to be used in tests.
(§3) MTT assay was used to find out how tested compounds influence the metabolic activity of investigated cell lines. The cells were incubated with tested compounds. After removing of supernatant, 1 mg/mL of MTT solution in MEM was added to the plate (to each well) and then the plates were incubated at 37 °C for 2 h. The medium was removed again, and formazan crystals were dissolved in isopropanol. A Varioscan LUX microplate reader (Thermo Fisher Scientific, Waltham, MA, USA) was used to measure absorbance at 570 nm.
A general note: Tetrazolium dyes change colour on reduction, which living cells bring about.

Assay [2] deals with V79 (fibroblasts from Chinese hamster lung). Nature of the assay: MTT assay, V79. Type of assay: cell-based. The note with it: Cricetulus griseus, Fibroblast, 48 h incubation, read-out: IC50 [µM] ± SD V79.
From the text: as §1, §2, §3

In assay [3] the test system is A549 (pulmonary basal cell alveolar adenocarcinoma). Nature of the assay: MTT assay, A549. Type of assay: cell-based. As to conditions: Homo sapiens, 48 h incubation, read-out: IC50 [µM] ± SD A549.
From the text: as §1, §2, §3

Assay [4] has as its system MCF-7 (breast adenocarcinoma). Nature of the assay: MTT assay, MCF-7. Type of assay: cell-based. The note with it: Homo sapiens, MCF7, 48 h incubation, read-out: IC50 [µM] ± SD MCF-7.
From the text: as §1, §2, §3

Assay [5] concerns LoVo (colon adenocarcinoma). As to the kind of experiment: MTT assay, LoVo. Type of assay: cell-based. The note with it: Homo sapiens, 48 h incubation, read-out: IC50 [µM] ± SD LoVo.
From the text: as §1, §2, §3

The next assay concerns V79 cell line. Nature of the assay: Intracellular ROS level (DCFH-DA), V79 cells. It is filed as cell-based, Chinese hamster. The note with it: Cricetulus griseus, 4 h, V79, compound 100 μM. The protocol: Two cell lines were chosen for investigations: V79 (Chinese hamster lung fibroblasts) and LoVo. V79 normal cells are widely used as the cell line tested in the studies of the oxidative stress. These cells are a living system model to explain the mechanism of ROS effects caused by varied compounds [73].
First, the tested compounds (in concentration of 100 μM) were added to the cell cultures and cells were incubated for 4 h. Then cells were washed and incubated with DCFH-DA (non-fluorescent probe) in dark at 37 °C for 2 h at CO2 [79]. Non-fluorescent, non-polar DCFH-DA (2′7′-dichlorodihydrofluorescein diacetate) at concentration of 25 μM was used as a marker of oxidative stress to determine the intracellular ROS levels. […] In this time, DCFH-DA which penetrated into the cells, was hydrolyzed by esterases to polar, non-fluorescent DCFH (2′7′-dichlorodihydrofluorescein) and then oxidized in the presence of ROS (reactive oxygen species) to fluorescent DCF (2′7′-dichlorofluorescein). DCF was measured using Varioscan LUX microplate reader (Thermo Fisher Scientific, Waltham, MA, USA) at λex = 485 nm and λem = 535 nm. Then results were presented as E/E0 where E is test sample value and E0—control value.
[…] E is the culture with the tested compound and E0 is the negative control without the compound. The routine statistical methods: two-way analysis of variance ANOVA as well as Tukey’s post-hoc test were used. It allowed us to determine the statistical significance of results, where p < 0.05 was set as significant. The statistical indicators were estimated using Statistica 13.3 software.

The mark [6] stands for this setting: with H2O2 (100 μM, 30 min), n = 5, read-out: ROS scavenging activity, Mean E/E0 ± SD, with H2O2.
Setting [7] is: without H2O2, n = 5, read-out: ROS scavenging activity, Mean E/E0 ± SD, without H2O2.

Where two headings read alike, the source gives them in different places.

A word on the IC50: it is the concentration that inhibits the measured activity by half.

`Cc1cc(C)c(C(=O)NCc2nn(CC(=O)NN)c(=S)o2)c(S)n1` [Compound 4, N-{[4-(2-hydrazinyl-2-oxoethyl)-5-sulfanylidene-4,5-dihydro-1,3,4-oxadiazol-2-yl]methyl}-4,6-dimethyl-2-sulfanylpyridine-3-carboxamide]: the IC50 on COX-1 was 135 ± 5.99 µM; in assay [1], 77.4 ± 5.84 µM; in assay [2], 71.7 ± 5.8 µM; in assay [3], 3.84 ± 0.3 µM; in assay [4], 9.63 ± 1.66 µM; in assay [5], 3.01 ± 0.2 µM. The activity at 100 µM in the assay with V79 cell line (setting [6]) was found to be 42 ± 8%; in the assay on V79 cell line (setting [7]), 53 ± 22%.

Regarding `Cc1cc(C)c(C(=O)NCc2nn(CC(=O)NN=Cc3ccc(C#N)cc3)c(=S)o2)c(S)n1` [Compound 9, 4,6-Dimethyl-N-{[4-(2-(2-(4-cyanobenzylidene)hydrazinyl)-2-oxoethyl)-5-sulfanylidene-4,5-dihydro-1,3,4-oxadiazole-2-yl]methyl}-2-sulfanylpyridine-3-carboxamide], the concentration for half-maximal inhibition (IC50) was 154 ± 6.29 µM at COX-1; 89.8 ± 8.43 µM in assay [1]; 77.7 ± 4.41 µM in assay [2]; 3.36 ± 0.2 µM in assay [3]; 8.22 ± 5.98 µM in assay [4]; 3.24 ± 0.1 µM in assay [5]. The figures for the activity at 100 µM in the assay on V79 cell line (setting [6]) and with V79 cell line (setting [7]) were 71 ± 12% and 78 ± 31%, respectively.

Source of the values: PMC8745710, “Biological Evaluation and Molecular Docking Studies of Novel 1,3,4-Oxadiazole Derivatives of 4,6-Dimethyl-2-sulfanylpyridine-3-carboxamide” (International Journal of Molecular Sciences, 2022).
